# Results: publication PMC7055873 (PLoS ONE, 2020)
# “Also recorded” adds a separate entry of the source.
# Molecular target: H275Y mutant A(H1N1)pdm09 virus, neuraminidase (NA) (Influenza A virus, UniProt A0A0X9QTS2, H275Y)
compound,measurement,value
"CCC(CC)[C@H](NC(C)=O)[C@@H]1[C@H](O)[C@@H](C(=O)O)C[C@H]1N=C(N)N [Peramivir, peramivir]",IC50,21.9 nM
same,susceptibility interpretation,highly reduced inhibition; also recorded: high reduced inhibition
"CCOC(=O)C1=C[C@@H](OC(CC)CC)[C@H](NC(C)=O)[C@@H](N)C1 [Oseltamivir, oseltamivir]",susceptibility interpretation,highly reduced inhibition; also recorded: high reduced inhibition
